Assay results: patent US20060110385A1, “Means and methods for diagnosing and treating affective disorders” (Affectis Pharmaceuticals AG, priority 2003, published 2006)

How the values were obtained:
P2X7R [1] = molecular target: T1, P2X7R (Mus musculus, UniProt Q9Z1M0); assay: Entry of ethidium bromide into HT-22 cells; format: cell-based; conditions: HT-22 cells, 60 minutes, 10^−4M ethidium bromide; 1 μM to 1 mM tested
T1 construct: endogenous in cells; host or cells: HT-22 (immortalised mouse hippocampal cell line)
T1 sequence (Q9Z1M0 1-595): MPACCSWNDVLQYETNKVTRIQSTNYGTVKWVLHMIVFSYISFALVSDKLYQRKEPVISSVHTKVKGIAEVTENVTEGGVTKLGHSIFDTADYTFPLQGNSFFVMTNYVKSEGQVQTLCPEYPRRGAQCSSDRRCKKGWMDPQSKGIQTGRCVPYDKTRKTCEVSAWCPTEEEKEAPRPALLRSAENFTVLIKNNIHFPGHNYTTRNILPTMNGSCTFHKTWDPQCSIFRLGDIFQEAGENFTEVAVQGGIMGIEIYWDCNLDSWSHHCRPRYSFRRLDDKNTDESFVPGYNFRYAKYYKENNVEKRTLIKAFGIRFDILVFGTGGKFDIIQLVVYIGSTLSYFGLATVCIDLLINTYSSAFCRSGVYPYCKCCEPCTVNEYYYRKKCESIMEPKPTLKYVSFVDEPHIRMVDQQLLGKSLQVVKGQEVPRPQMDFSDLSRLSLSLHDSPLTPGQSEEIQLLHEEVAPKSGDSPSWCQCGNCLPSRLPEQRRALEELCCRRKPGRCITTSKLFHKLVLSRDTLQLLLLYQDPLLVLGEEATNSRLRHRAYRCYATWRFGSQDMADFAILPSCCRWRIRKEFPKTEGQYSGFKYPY
Excerpt: Yet another method of measuring P2X7R activity involves the entry of ethidium bromide into P2X7R expressing cells. Activation of P2X7R by an agonist allows the entry of ethidium bromide which binds nuclear DNA and emits a fluorescence signal. Alternatively, the propidium dye YOPRO-1 can be substituted for ethidium bromide. An increase in fluorescence can be used as a measure of P2X7 receptor activation. Therefore, the assay can be used to test and quantify the effect of an agent or compound with agonist properties on P2X7R. In the present example, 10^3 HT-22 cells were seeded per well in a 96-well flat bottom microtitre plates and incubated at 37° C./5% CO2 in DMEM medium containing 10% FCS until the cells attached to the culture surface. […] The number of fluorescent cells which have integrated the ethidium bromide to the DNA can then be counted using a fluorescent microscope (Zeiss, Germany). […] Alternatively, ethidium bromide fluorescence can be measured using a Perkin-Elmer fluorescent plate reader (excitation 520 nm, emission 595 nm, slit widths: Ex 15 nm, Em 20 nm). From the readings obtained, a pIC50 figure can be calculated for each candidate agent or compound. […] The specificity of an agonist for P2X7R can be evaluated by pre-incubation of the cells for 60 minutes with 100 μM o-ATP before adding the agonist and ethidium bromide dye.

P2X7R [2] = molecular target: T2, P2X7R (Homo sapiens, UniProt Q99572); assay: Calcium entry (Fluo-4 AM) in HT-22 cells overexpressing human P2X7R; format: cell-based; parameters: expressed in transfected cells; conditions: 20 μM BzATP or 50 μM tenidap
T2 sequence (Q99572 1-595): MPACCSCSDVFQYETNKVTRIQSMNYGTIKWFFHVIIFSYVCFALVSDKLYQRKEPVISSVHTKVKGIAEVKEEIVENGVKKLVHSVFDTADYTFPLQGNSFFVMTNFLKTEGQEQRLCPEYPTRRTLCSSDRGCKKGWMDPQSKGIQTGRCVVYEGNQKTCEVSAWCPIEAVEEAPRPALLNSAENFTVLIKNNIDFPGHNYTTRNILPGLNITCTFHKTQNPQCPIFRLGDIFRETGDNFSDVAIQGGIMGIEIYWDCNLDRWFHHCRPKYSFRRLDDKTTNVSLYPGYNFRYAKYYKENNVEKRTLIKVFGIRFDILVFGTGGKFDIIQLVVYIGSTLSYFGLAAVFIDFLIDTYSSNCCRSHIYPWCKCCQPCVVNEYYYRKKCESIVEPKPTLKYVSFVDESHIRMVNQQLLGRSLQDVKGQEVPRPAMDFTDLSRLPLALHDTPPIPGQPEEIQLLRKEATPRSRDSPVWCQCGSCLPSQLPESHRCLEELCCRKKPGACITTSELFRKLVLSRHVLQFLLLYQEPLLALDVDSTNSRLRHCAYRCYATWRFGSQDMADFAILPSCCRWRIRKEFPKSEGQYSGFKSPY
Excerpt: Yet another method for identifying P2X7R agonists was devised by generating a immortalised mouse cell line that overexpresses the human P2X7R gene under the control of the human cytomegalovirus (CMV) early promoter/enhancer region. The human P2X7R cDNA was inserted into the pcDNA3.1 vector (Invitrogen) and transfected into the mouse hippocampal cell line HT-22 using Lipofectamine (Invitrogen) according to the manufacturer's specifications. One day after transfection, culture medium containing 500 μg/ml G418 was added to the cells. Resistant clones were separately isolated and cultured 14 days after applying the selection medium.
The agonistic activity of a compound was evaluated by measuring calcium entry in the cells that overexpress the human P2X7R. Cells were cultured in 96 well plates and incubated at 37° C. with 5% CO2 DMEM with 10% foetal calf serum (Gibco) until they reached confluence. Cells were then loaded for one hour with 10 μM of Fluo-4 AM (Molecular Probes). Fluo-4 AM is a fluorescent dye that binds to intracellular calcium. […] Agonist activity was detected by measuring an increase in calcium influx which results in increased binding to Fluo-4 AM and increased fluorescence. Changes in fluorescence signal are measured using a Fluostar Optima plate reader (BMG biotech). […] Thus, both compound stimulated the activity of P2X7R which results in an influx of ions into the cells.

2′-3′-O-(4-Benzoylbenzoyl)adenosine 5′-triphosphate [BzATP]
concentration that increased the number of fluorescent nuclei (P2X7R [1]): above 100 μM
fluorescence intensity (calcium influx, Fluo-4 AM) (P2X7R [2]): rapid increase in fluorescence intensity
